# Reference: US20230382889A1 (Volastra Therapeutics, Inc., priority 2022, published 2023)
# Read-outs that look alike come from different tables or passages of the source.
# Columns and labels:
# hKIF18A (1-374) = hKIF18A (1-374) (Homo sapiens (Human), UniProt Q8NI77); experiment: Inhibition of KIF18A microtubule-dependent ATPase activity (ADP-Glo); type: biochemical; conditions: 4 nM hKIF18A (1-374)
# In short: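 Reaction was started with pre-formed microtubules and ATP (0.2 mg/mL and 2.0 mM in the added mix) and run 60 min at 28 °C. ADP was read by ADP-Glo luminescence, and IC50 came from a four-parameter fit of % inhibition.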
# HCC15 cells = experiment: Cell viability of KIF18a-sensitive cell lines, HCC15 (Cell Titre-Glo, 7 days); type: cell-based; conditions: HCC15, 7 days, read-out: HCC15 IC50
# Procedure: (§1) Cell lines were seeded as follows 24 hours before compound treatment: HCC15 (Korean Cell Line Bank) 600 cell/well, 95 μL of RPMI-1640 media supplemented with 100 units/mL penicillin, 100 units/mL streptomycin and 10% FBS; NIH:OVCAR-3 (ATCC), 1000 cell/well, 95 μL of RPMI-1640 media supplemented with 100 units/mL penicillin, 100 units/mL streptomycin, 0.01 mg/mL bovine insulin, and 20% FBS; JIMT-1 (Addexbio) 1000 cell/well, 95 μL of DMEM media supplemented with 100 units/mL penicillin, 100 units/mL streptomycin, and 10% FBS.
# (§2) Test compounds were added to cells in a 20× dilution scheme by adding 5 μL of serially diluted compound to the plate, and the treated cells were incubated for an additional 7 days in a 37° C., 5% CO2 incubator. DMSO was used as the negative control (0% effect), and wells omitting cells were used as the positive control (100% effect). The cells were incubated for seven days, and cell viability determined via the Promega Cell Titre-Glo® Assay kit. Luminescence units were converted to ATP concentrations via an ATP standard curve (10 point, 2-fold dilution from 5 uM). % Inhibition was calculated for each well as: ([max−min]−[test−min])/[max−min]. IC50 values were calculated from concentration vs. % Inhibition data via a four-parameter variable slope model.
# JIMT-1 cells = experiment: Cell viability of KIF18a-sensitive cell lines, JIMT-1 (Cell Titre-Glo, 7 days); type: cell-based; conditions: JIMT-1, 7 days, read-out: JIMT-1 IC50
# Procedure: as §1, §2
# [1] = molecular target: KIF18a-microtubule complex (Homo sapiens (Human), UniProt Q8NI77); experiment: Binding kinetics to KIF18a-microtubule complex (global progress curve analysis); conditions: for kon (on-rate from binding kinetics assay) / koff: KIF18A 0.25 nM, up to 24 hr; for koff: read-out: koff (off-rate from binding kinetics assay) (converted); for Ki: koff/kon, read-out: KI (determined from binding kinetic assay koff/kon)
# KIF18a-microtubule complex, sequence (Q8NI77 1-374, one chain of several): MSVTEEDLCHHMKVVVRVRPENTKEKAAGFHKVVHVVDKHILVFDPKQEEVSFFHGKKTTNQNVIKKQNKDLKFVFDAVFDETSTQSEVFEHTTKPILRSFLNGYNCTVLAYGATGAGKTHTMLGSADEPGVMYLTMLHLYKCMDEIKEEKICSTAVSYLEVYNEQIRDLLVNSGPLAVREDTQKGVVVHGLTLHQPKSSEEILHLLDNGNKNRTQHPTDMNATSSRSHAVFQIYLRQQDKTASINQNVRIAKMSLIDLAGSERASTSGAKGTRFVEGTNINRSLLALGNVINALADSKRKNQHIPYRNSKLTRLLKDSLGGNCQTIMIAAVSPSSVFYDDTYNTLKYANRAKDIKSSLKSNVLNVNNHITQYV
# Procedure: Compound binding kinetics parameters (kon and koff) were determined by the method of global progress curve analysis (GPCA). […] ADP product levels were determined by the Promega® ADP-Glo assay.
# NIH:OVCAR-3 cells = experiment: Cell viability of KIF18a-sensitive cell lines, NIH:OVCAR-3 (Cell Titre-Glo, 7 days); type: cell-based; conditions: NIH:OVCAR3, 7 days, read-out: NIH:OVCAR3 IC50
# Procedure: as §1, §2
# hKIF18A (1-374), sequence (Q8NI77 1-374): as the sequence (Q8NI77 1-374, one chain of several) above
SMILES,IC50 (hKIF18A (1-374)) [nM],IC50 (HCC15 cells; 168 h) [nM],kon (on-rate from binding kinetics assay) [1] [M⁻¹ s⁻¹],koff [1] [s⁻¹],Ki [1] [nM],disc. t1/2 (dissociation half-life ln(2)/koff) [1] [h],"IC50 (NIH:OVCAR-3 cells; Homo sapiens, OVCAR-3, 168 h) [nM]",IC50 (HCC15 cells) [nM],IC50 (NIH:OVCAR-3 cells) [nM],"IC50 (JIMT-1 cells; Homo sapiens, 168 h) [nM]",IC50 (JIMT-1 cells) [nM]
"Cc1cc(-c2cn(-c3ccc(NS(=O)(=O)CCO)cc3N3CCCCC3)nn2)nc(N2CCC(F)(F)CC2)n1 [Compound 67, N-(4-(4-(2-(4,4-difluoropiperidin-1-yl)-6-methylpyrimidin-4-yl)-1H-1,2,3-triazol-1-yl)-3-(piperidin-1-yl)phenyl)-2-hydroxyethane-1-sulfonamide]",22,51,12200,2.06e-05,1.7,9.4,47,–,–,66,–
"O=S(=O)(CCO)Nc1ccc(-n2cc(-c3cccc(N4CCC(F)(F)CC4)n3)nn2)c(N2CCC3(CC2)CC3)c1 [Compound 45, N-(4-(4-(6-(4,4-difluoropiperidin-1-yl)pyridin-2-yl)-1H-1,2,3-triazol-1-yl)-3-(6-azaspiro[2.5]octan-6-yl)phenyl)-2-hydroxyethane-1-sulfonamide]",6.6,3.9,30600,6.67e-06,0.21,28,5.5,–,–,6.9,–
"CS(=O)(=O)Nc1ccc(-c2ncc(-c3cccc(N4CCOCC4)n3)[nH]2)c(N2CCC3(CC2)CC3)c1 [Compound 10, N-(4-(5-(6-morpholinopyridin-2-yl)-1H-imidazol-2-yl)-3-(6-azaspiro[2.5]octan-6-yl)phenyl)methanesulfonamide]",9.2,120,4720,6.67e-05,14,2.9,210,–,–,130,–
"Cc1cc(-c2cn(-c3ccc(NS(=O)(=O)CCO)cc3N3CCCCC3)nn2)nc(N2CCC(F)(F)CC2)c1 [Compound 68, N-(4-(4-(6-(4,4-difluoropiperidin-1-yl)-4-methylpyridin-2-yl)-1H-1,2,3-triazol-1-yl)-3-(piperidin-1-yl)phenyl)-2-hydroxyethane-1-sulfonamide]",12,28,21900,1.81e-05,0.82,11,21,–,–,30,–
"CS(=O)(=O)Nc1ccc(-n2cc(-c3cccc(N4CCC(F)(F)CC4)n3)nn2)c(N2CCC3(CC2)CC3)c1 [Compound 11, N-(4-(4-(6-(4,4-difluoropiperidin-1-yl)pyridin-2-yl)-1H-1,2,3-triazol-1-yl)-3-(6-azaspiro[2.5]octan-6-yl)phenyl)methanesulfonamide]",23,13,36100,4.44e-06,0.13,43,23,–,–,9.1,–
"CS(=O)(=O)Nc1ccc(-c2ncc(-c3cccc(N4CCC(F)(F)CC4)n3)[nH]2)c(N2CCC3(CC2)CC3)c1 [Compound 9, N-(4-(5-(6-(4,4-difluoropiperidin-1-yl)pyridin-2-yl)-1H-imidazol-2-yl)-3-(6-azaspiro[2.5]octan-6-yl)phenyl)methanesulfonamide]",21,110,6670,5.83e-05,8.7,3.3,200,–,–,100,–
"CS(=O)(=O)Nc1ccc(-n2cc(-c3cccc(N4CCC(F)(F)CC4)n3)nn2)c(N2CCCCC2)c1 [Compound 15, N-(4-(4-(6-(4,4-difluoropiperidin-1-yl)pyridin-2-yl)-1H-1,2,3-triazol-1-yl)-3-(piperidin-1-yl)phenyl)methanesulfonamide]",6.6,12,21900,1.14e-05,0.52,17,18,–,–,12,–

# Second part, led by results:
IC50 (hKIF18A (1-374)) [nM],IC50 (HCC15 cells; 168 h) [nM],kon (on-rate from binding kinetics assay) [1] [M⁻¹ s⁻¹],koff [1] [s⁻¹],Ki [1] [nM],disc. t1/2 (dissociation half-life ln(2)/koff) [1] [h],"IC50 (NIH:OVCAR-3 cells; Homo sapiens, OVCAR-3, 168 h) [nM]",IC50 (HCC15 cells) [nM],IC50 (NIH:OVCAR-3 cells) [nM],SMILES,"IC50 (JIMT-1 cells; Homo sapiens, 168 h) [nM]",IC50 (JIMT-1 cells) [nM]
6,29,36100,1.94e-05,0.53,9.9,32,–,–,"O=S(=O)(CCO)Nc1ccc(-n2cc(-c3csc(N4CCC(F)(F)CC4)n3)nn2)c(N2CCC3(CC2)CC3)c1 [Compound 69, N-(4-(4-(2-(4,4-difluoropiperidin-1-yl)thiazol-4-yl)-1H-1,2,3-triazol-1-yl)-3-(6-azaspiro[2.5]octan-6-yl)phenyl)-2-hydroxyethane-1-sulfonamide]",38,–
20,10,–,–,–,–,13,–,–,"CCS(=O)(=O)Nc1cc(N2CCC3(CC2)CC3)c(-n2cc(-c3cccc(S(=O)(=O)NC(C)(C)C)c3)nn2)cc1F [Compound 117, N-(tert-butyl)-3-(1-(4-(ethylsulfonamido)-5-fluoro-2-(6-azaspiro[2.5]octan-6-yl)phenyl)-1H-1,2,3-triazol-4-yl)benzenesulfonamide]",14,–
36,29,–,–,–,–,40,–,–,"Cc1cc(-c2cn(-c3ccc(NS(=O)(=O)C4(CO)CC4)cc3N3CCCCC3)nn2)nc(N2CCC(F)(F)CC2)n1 [Compound 91, N-(4-(4-(2-(4,4-difluoropiperidin-1-yl)-6-methylpyrimidin-4-yl)-1H-1,2,3-triazol-1-yl)-3-(piperidin-1-yl)phenyl)-1-(hydroxymethyl)cyclopropane-1-sulfonamide]",35,–
10,12,–,–,–,–,13,–,–,"O=S(=O)(CCO)Nc1ccc(-c2cn(-c3cccc(N4CCC(F)(F)CC4)n3)nn2)c(N2CCC3(CC2)CC3)c1 [Compound 71, N-(4-(1-(6-(4,4-difluoropiperidin-1-yl)pyridin-2-yl)-1H-1,2,3-triazol-4-yl)-3-(6-azaspiro[2.5]octan-6-yl)phenyl)-2-hydroxyethane-1-sulfonamide]",20,–
5.6,–,–,–,–,–,–,13,21,"O=S(=O)(CCO)Nc1ccc(-n2cc(-c3cccc(C(O)C4CCCC4)n3)nn2)c(N2CCC3(CC2)CC3)c1 (single isomer, unassigned) [Compound 90b]",–,20
